Structures can show the parent of a compound that is named as a salt. Where two headings read alike, the source gives them in different places.
Assays:
[1] = tested on: BaCl2 -induced contraction of the duodenum; experiment: Antispasmodic activity compared to Papaverine (BaCl2-induced contraction of the duodenum); settings: Papaverine = 1
[2] = Acute toxicity (LD 50%, semi-logarithmic technique of Lichfield and Wilcoxon); format: in vivo; settings: for LD50: in vivo
From the text: Each value represents the LD 50% expressed as mg/kg, according to the semi-logarithmic technique disclosed by Lichfield and Wilcoxon.

[3] = tested on: surface anesthesia in rabbits; experiment: Surface anesthesia in rabbits compared to Butacaine; format: in vivo; settings: Butacaine = 1
[4] = tested on: conduction anesthesia in guinea-pigs; experiment: Conduction anesthesia in guinea-pigs compared to Xylocaine; format: in vivo; settings: Xylocaine = 1
[5] = tested on: arrhythmia induced by Strophantine in combination with adrenaline; experiment: Preventive action on arrhythmia induced by perfusion of K-Strophantine in combination with adrenaline; format: in vivo, guinea-pits; settings: K-Strophantine 0.I5mg/ml + Adrenaline 5μg/ml, ±SD, control 1.21±0.33
Experimental: (§1) a. Two Examples are given to show the preventive action, by the intravenous route:
(§2) 1. in guinea-pits, on arrhythmia induced by Strophantine alone or in combination with adrenaline;
(§3) The various compounds of the above Table are administered just prior to
(§4) perfusion of the arrhythmogenic materials (K-Strophantine,
(§5) K-Strophantine-Adrenaline, Aconitine). The values represent the period of
(§6) time ± SD (standard deviation) before the first signs of arrhythmia

[6] = tested on: disorders of the cardiac rhythm; experiment: Clinical tests, oral administration in patients suffering from disorders of the cardiac rhythm; format: in vivo; settings: oral, 200, 400 and 600 mg
[7] = Chronic toxicity, oral, 3 months, young adult rats; format: in vivo, rats of Sprague Dawley (Charles River) strain; settings: oral, 25, 75 and 150 mg/kg during 3 months
Experimental: The compound of Example 1 was administered orally to young adult rats of Sprague Dawley (Charles River) strain, at dosages of 25, 75 and 150 mg/kg during 3 months.

[8] = tested on: arrhythmia induced by Strophantine alone; experiment: Preventive action on arrhythmia induced by perfusion of K-Strophantine alone; format: in vivo, guinea-pits; settings: K-Strophantine 0.I5mg/ml, 0.5ml/mn, ±SD, control 2.45±0.22
Experimental: as §1, §2, §3, §4, §5, §6

[9] = tested on: disorders of the cardiac rhythm in non-anesthetized dogs 24 hours after coronary ligation; experiment: Curative activity on disorders of the cardiac rhythm 24 hours after coronary ligation (method according to Harris); format: in vivo; settings: for Percent sinus rhythm after administration of the compound: extreme values in parenthesis
From the text: b. An Example is given to show the curative activity by the oral route.
As is apparent from following Table IV, the effect is a function of the disage administered.

[10] = tested on: aconitine-induced rhythm disorders; experiment: Preventive action on aconitine-induced rhythm disorders; format: in vivo, rats; settings: Aconitine 50mg/l, 0.2ml/mn, ±SD, control 85±15
Experimental: as §1
2. in rats, on aconitine-induced rhythm disorders.
as §3, §4, §5, §6

[11] = Chronic toxicity, intravenous, 1 month, young male adult mice; format: in vivo; settings: 1 and 5 mg/kg during 1 month
Experimental: The compound of Example 1 was also administered intravenously to young male adult mice, at dosages of 1 and 5 mg/kg during 1 month.

[12] = oral route, read-out: LD50, oral route
[13] = intravenous route, read-out: LD50, intravenous route

| SMILES | Ratio between the dosage of Papaverine and the dosage of Compound (1) producing the same antispasmodic activity [1] | LD50 [2, 12] [mg/kg] | Ratio between the activity of compound (I) and the activity of Butacaine for surface anesthesia, on administration of a same dosage [3] | Ratio between the activity of compound (I) and the activity of Xylocaine for conduction anesthesia, on administration of a same dosage [4] | LD50 [2, 13] [mg/kg] | also measured |
| --- | --- | --- | --- | --- | --- | --- |
| COc1ccc(Cc2nccc3cc(OC)c(OC)cc23)cc1OC [Papaverine, reference compound] | 1 | – | – | – | – | – |
| CCN(CC)CC(O)CNc1nc(-c2ccc(F)cc2)no1 (stereo not drawn) [Example 4, 5-(3-diethylamino-2-hydroxy-propyl)-amino-3-(4-fluorophenyl)-1,2,4-oxadiazole fumarate] | – | 750 | 1.4 | 1.5 | – | – |
| CCNCC(O)CN(CC)c1nc(-c2ccccc2)no1 (stereo not drawn) [Example 12] | 0.8 | – | 1 | 1.65 | – | – |
| CCCN(CCC)CC(O)CN(C)c1nc(-c2ccccc2)no1 (stereo not drawn) [Example 9, 5-N-(3-dipropylamino-2-hydroxy-propyl)-N-methylamino-3-phenyl-1,2,4-oxadiazole fumarate hydrate] | 4 | 250 | 1.65 | 1.6 | 50 | period of time before the first signs of arrhythmia appear ([5]; 2.5 mg/kg intravenous): 1.77±0.08 decimal minutes |
| CCN(CC)CC(O)CN(C)c1nc(-c2ccccc2)no1 (stereo not drawn) [Example 1, 5-N-(3-diethylamino-2-hydroxy-propyl)-N-methylamino-3-phenyl-1,2,4-oxadiazole fumarate hydrate] | 1.5 | 280 | 1.5 | 1 | 30 | period of time before the first signs of arrhythmia appear ([5]; 10 mg/kg intravenous): 1.62±0.42 decimal minutes; effects in patients suffering from disorders of the cardiac rhythm [6]: beneficial effects; Tolerance ([6]; patients): good; change of weight of the organs on autopsy [7]: No change of weight of the organs was found; hematologic examination, biochemical blood tests and urinalysis [7]: No anomaly was detected; histological anomaly on anatomicopathological examination [7]: No histological anomaly, and particularly no liver, kidney or brain injury was found; period of time before the first signs of arrhythmia appear ([8]; 5 mg/kg intravenous): 3.27±0.4 decimal minutes; period of time before the first signs of arrhythmia appear ([8]; 10 mg/kg intravenous): 3.18±0.33 decimal minutes; Percent sinus rhythm after administration of the compound ([9]; 10 mg/kg oral, 3 tests, prior to administration 5%(0-15%)): 25%(0-65%); Percent sinus rhythm after administration of the compound ([9]; 25 mg/kg oral, 8 tests, prior to administration 5.6% (0-18%)): 59%(5-100%); Percent sinus rhythm after administration of the compound ([9]; 50 mg/kg oral, 6 tests, prior to administration 7.6% (0-20%)): 71.6% (25-100%); curative activity on disorders of the cardiac rhythm after coronary ligation (in words) ([9]; non-anesthetized dogs, oral route): corrects the disorders of the cardiac rhythm; period of time before the first signs of arrhythmia appear ([10]; 5 mg/kg intravenous): 141 ± 28 s; period of time before the first signs of arrhythmia appear ([10]; 10 mg/kg intravenous): 126 ± 23 s; glycemia and serum transaminase level [11]: comparable in the treated animals and in the control animals; hematological examination [11]: No substantial modifications were found; histological anomaly on autopsy [11]: No histological anomaly was found on autopsy, particularly no cytologic injury of the liver, the kidneys, the pancreas, the heart or the brain; local tolerance of the injections [11]: well tolerated locally |
| CCN(CC)CC(O)CN(C)c1nc(-c2ccncc2)no1 (stereo not drawn) [Example 11] | 0.2 | 750 | 1.5 | 1 | 100 | period of time before the first signs of arrhythmia appear ([5]; 10 mg/kg intravenous): 1.3±0.3 decimal minutes; period of time before the first signs of arrhythmia appear ([10]; 20 mg/kg intravenous): 129 ± 21 s |
| CCCN(CC(O)CN(CC)CC)c1nc(-c2ccccc2)no1 (stereo not drawn) [Example 7, 5-[N-(3-diethylamino-2-hydroxy-propyl)-N-propyl]amino-3-phenyl-1,2,4-oxadiazole fumarate hydrate] | – | 250 | – | – | – | period of time before the first signs of arrhythmia appear ([5]; 2.5 mg/kg intravenous): 1.74±0.16 decimal minutes; period of time before the first signs of arrhythmia appear ([8]; 2.5 mg/kg intravenous): 2.85±0.1 decimal minutes; insoluble (entry in place of the intravenous LD50) ([2]; intravenous route): inso-; period of time before the first signs of arrhythmia appear ([10]; 2.5 mg/kg intravenous): 185 ± 48 s |
| CCN(CC)CC(O)CNc1nc(-c2ccccc2)no1 (stereo not drawn) [Example 2] | 1 | 700 | 1 | 1.4 | 55 | period of time before the first signs of arrhythmia appear ([5]; 10 mg/kg intravenous): 2.73±0.5 decimal minutes; period of time before the first signs of arrhythmia appear ([8]; 10 mg/kg intravenous): 3.04±0.52 decimal minutes; period of time before the first signs of arrhythmia appear ([10]; 10 mg/kg intravenous): 155 ± 32 s |
| CCN(CC)CC(O)CN(CC)c1nc(-c2ccccc2)no1 (stereo not drawn) [Example 5] | 3 | 200 | 1.7 | 1.7 | 18 | period of time before the first signs of arrhythmia appear ([5]; 5 mg/kg intravenous): 1.60±0.35 decimal minutes; period of time before the first signs of arrhythmia appear ([8]; 5 mg/kg intravenous): 3.43±0.51 decimal minutes; period of time before the first signs of arrhythmia appear ([10]; 5 mg/kg intravenous): 119 ± 15.5 s |
| CN1CCN(CC(O)CNc2nc(-c3ccccc3)no2)CC1 (stereo not drawn) [Example 10] | – | 750 | – | – | – | insoluble (entry in place of the intravenous LD50) ([2]; intravenous route): inso- |
| C=CCN(CC(O)CN(CC)CC)c1nc(-c2ccccc2)no1 (stereo not drawn) [Example 8] | 2.5 | – | 1.5 | 1 | – | – |
